According to article PMC3509528, “Preliminary Structure-Activity Relationship on Theonellasterol, a New Chemotype of FXR Antagonist, from the Marine Sponge Theonella swinhoei” (Marine Drugs, 2012):

Biological target: T1, FXR (farnesoid-X-receptor; pCMVSPORT-FXR) (Homo sapiens, UniProt Q96RI1)
T1 construct: gene NR1H4; FXR expressed from pCMVSPORT-FXR, co-transfected with pSG5-RXR in HepG2 cells; p(hsp27)TKLUC luciferase reporter (IR1 element), Renilla normalisation
T1 sequence (Q96RI1 1-486): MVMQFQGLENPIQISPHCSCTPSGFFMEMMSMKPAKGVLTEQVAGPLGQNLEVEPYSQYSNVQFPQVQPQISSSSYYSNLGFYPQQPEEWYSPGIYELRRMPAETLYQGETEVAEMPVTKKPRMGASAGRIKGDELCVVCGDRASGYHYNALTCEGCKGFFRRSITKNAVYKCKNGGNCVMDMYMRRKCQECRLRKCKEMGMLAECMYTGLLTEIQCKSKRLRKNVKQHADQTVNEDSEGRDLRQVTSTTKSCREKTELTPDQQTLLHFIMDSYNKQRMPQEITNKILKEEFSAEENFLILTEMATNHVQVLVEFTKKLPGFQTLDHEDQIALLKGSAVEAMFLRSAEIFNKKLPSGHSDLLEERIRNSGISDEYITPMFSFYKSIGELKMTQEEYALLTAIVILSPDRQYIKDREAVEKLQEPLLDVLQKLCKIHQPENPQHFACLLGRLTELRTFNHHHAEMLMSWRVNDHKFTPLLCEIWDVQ
T1 sequence (P19793 1-462 partner): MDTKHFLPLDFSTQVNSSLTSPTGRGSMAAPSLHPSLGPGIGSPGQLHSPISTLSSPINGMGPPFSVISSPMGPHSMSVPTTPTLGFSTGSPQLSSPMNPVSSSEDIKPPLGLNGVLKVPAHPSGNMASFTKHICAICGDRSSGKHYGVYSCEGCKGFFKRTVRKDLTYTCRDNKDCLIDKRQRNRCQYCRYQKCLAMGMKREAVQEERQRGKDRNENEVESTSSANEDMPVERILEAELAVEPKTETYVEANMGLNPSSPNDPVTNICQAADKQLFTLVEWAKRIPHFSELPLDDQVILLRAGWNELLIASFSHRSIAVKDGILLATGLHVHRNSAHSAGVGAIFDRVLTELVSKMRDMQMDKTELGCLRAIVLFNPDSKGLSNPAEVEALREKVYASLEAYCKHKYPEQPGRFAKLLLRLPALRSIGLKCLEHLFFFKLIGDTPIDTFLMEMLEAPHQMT
Assay: luciferase reporter transactivation assay in transfected HepG2, antagonist mode
Type: cell-based

EC50: ~50 µM
Compound: C=C1[C@@H](O)CC[C@@]2(C)[C@H]1CCC1=C3CC[C@H]([C@H](C)CC[C@H](CC)C(C)C)[C@@]3(C)CC[C@@H]12 [compound 1, theonellasterol]
